Test results: patent US8192962B2, “Processes for detecting toxic substances” (Daikin Industries, Ltd., priority 2001, dated 2012)

System: Transport facilitation protein genes
Assay: DNA chip mRNA expression in yeast, transport facilitation protein genes (Table 5)
Assay type: cell-based, Saccharomyces cerevisiae S288C
Method: Yeast (Saccharomyces cerevisiae S288C (α SUC2mal mel gap2 CUP1)) were incubated at 25° C. on YPD medium (yeast extract 1%, polypepton 2%, glucose 2%). One of toxic chemical substances was added to the cells at logarithmic growth phase, and the cells were further incubated for two hours. Cells were cultured without any chemical substance in the same condition, and were used as control. Concentrations of the chemical substances were defined to inhibit the growth of the yeast but not lead to death.
After completion of the incubation, the culture was centrifuged to collect the cells. To the cells, sodium acetate buffer (50 mM sodium acetate, 10 mM EDTA, 1% SDS) was added, and the mixture was shaken at 65° C. for five minutes, followed by returning to room temperature, and obtaining the supernatant, of which the procedures were repeated two times. To the supernatant, ½ amount of a solution of phenol/chloroform was added, and the mixture was centrifuged to give a supernatant, which was added with an equal amount of chloroform, and the mixture was centrifuged to give a supernatant. To the supernatant, an equal amount of isopropanol containing 0.3 M sodium acetate was added, and the mixture was allowed to stand at room temperature for 30 minutes, after which the mixture was centrifuged to give a sediment of the whole RNAs. Seventy % ethanol was added to the sediment, and the mixture was again centrifuged to give a sediment, which was then dried and dissolved in water. mRNA was isolated from the whole RNAs as followings. In view of the fact that a poly A chain is attached to the 3′ terminus of mRNA, a polynucleotide having a poly T structure which was immobilized on the surface of latex beads was used to trap the mRNA, and then the mRNA was washed and eluted with spine column (Oligotex-dT30<Super>mRNA Purification Kit, Takara). Reverse transcription of the mRNA was conducted with a reverse transcriptase (Super Script II Reverse Transcriptase; catalogue No. 18064-014, GibcoBRL) using fluorescence-labeled nucleotides to give cDNAs that were introduced with Cy3-dUTP or Cy5-dUTP during the reverse transcription.
The labeled cDNAs were dissolved in TE buffer (10mM Tris-HCl/1 mM EDTA, pH8.0), and the solution was dropped on the DNA chip containing the whole genes of yeast (DNA Chip Research Inc. Japan) so that the cDNAs were hybridized on the DNA chip at 65° C. for over 12 hours. The fluoresces intensity of the DNA chip was read with a scanner, and the ratio relative to the fluorescence intensity resulting from the absence of chemical substance was estimated as the following, which is shown in Tables 1 to 9: […]

Question: Which results are given for `CCCCCCCCCCCCOS(=O)(=O)[O-].[Na+]` [(18), sodium lauryl sulfate]?
Answer: The level of expressed mRNA in the presence of chemical substance/The level of expressed mRNA in the absence of chemical substance (yeast gene YGR224W): 1.3; The level of expressed mRNA in the presence of chemical substance/The level of expressed mRNA in the absence of chemical substance (yeast gene YGR260W): 0.9; The level of expressed mRNA in the presence of chemical substance/The level of expressed mRNA in the absence of chemical substance (yeast gene YGR281W): 3.1; The level of expressed mRNA in the presence of chemical substance/The level of expressed mRNA in the absence of chemical substance (yeast gene YHL035C): 1.2; The level of expressed mRNA in the presence of chemical substance/The level of expressed mRNA in the absence of chemical substance (yeast gene YHL040C): 1.0; The level of expressed mRNA in the presence of chemical substance/The level of expressed mRNA in the absence of chemical substance (yeast gene YHL047C): 1.2; The level of expressed mRNA in the presence of chemical substance/The level of expressed mRNA in the absence of chemical substance (yeast gene YHR026W): 1.1; The level of expressed mRNA in the presence of chemical substance/The level of expressed mRNA in the absence of chemical substance (yeast gene YHR092C): 1.3; The level of expressed mRNA in the presence of chemical substance/The level of expressed mRNA in the absence of chemical substance (yeast gene YHR094C): 1.4; The level of expressed mRNA in the presence of chemical substance/The level of expressed mRNA in the absence of chemical substance (yeast gene YHR175W): 1.2; The level of expressed mRNA in the presence of chemical substance/The level of expressed mRNA in the absence of chemical substance (yeast gene YIL006W): 0.9; The level of expressed mRNA in the presence of chemical substance/The level of expressed mRNA in the absence of chemical substance (yeast gene YIL022W): 0.7; The level of expressed mRNA in the presence of chemical substance/The level of expressed mRNA in the absence of chemical substance (yeast gene YIL056W): 1.2; The level of expressed mRNA in the presence of chemical substance/The level of expressed mRNA in the absence of chemical substance (yeast gene YIL088C): 1.4; The level of expressed mRNA in the presence of chemical substance/The level of expressed mRNA in the absence of chemical substance (yeast gene YJL034W): 1.0; The level of expressed mRNA in the presence of chemical substance/The level of expressed mRNA in the absence of chemical substance (yeast gene YJL212C): 0.5; The level of expressed mRNA in the presence of chemical substance/The level of expressed mRNA in the absence of chemical substance (yeast gene YJL219W): 1.2; The level of expressed mRNA in the presence of chemical substance/The level of expressed mRNA in the absence of chemical substance (yeast gene YJR077C): 0.8; The level of expressed mRNA in the presence of chemical substance/The level of expressed mRNA in the absence of chemical substance (yeast gene YJR106W): 1.3; The level of expressed mRNA in the presence of chemical substance/The level of expressed mRNA in the absence of chemical substance (yeast gene YJR121W): 1.4; The level of expressed mRNA in the presence of chemical substance/The level of expressed mRNA in the absence of chemical substance (yeast gene YKL016C): 1.7; The level of expressed mRNA in the presence of chemical substance/The level of expressed mRNA in the absence of chemical substance (yeast gene YKL146W): 0.9; The level of expressed mRNA in the presence of chemical substance/The level of expressed mRNA in the absence of chemical substance (yeast gene YKR039W): 1.1; The level of expressed mRNA in the presence of chemical substance/The level of expressed mRNA in the absence of chemical substance (yeast gene YKR067W): 1.0; The level of expressed mRNA in the presence of chemical substance/The level of expressed mRNA in the absence of chemical substance (yeast gene YLL028W): 1.2; The level of expressed mRNA in the presence of chemical substance/The level of expressed mRNA in the absence of chemical substance (yeast gene YLR081W): 0.9; The level of expressed mRNA in the presence of chemical substance/The level of expressed mRNA in the absence of chemical substance (yeast gene YLR295C): 1.5; The level of expressed mRNA in the presence of chemical substance/The level of expressed mRNA in the absence of chemical substance (yeast gene YLR348C): 1.0; The level of expressed mRNA in the presence of chemical substance/The level of expressed mRNA in the absence of chemical substance (yeast gene YLR378C): 0.7; The level of expressed mRNA in the presence of chemical substance/The level of expressed mRNA in the absence of chemical substance (yeast gene YMR011W): 1.6; The level of expressed mRNA in the presence of chemical substance/The level of expressed mRNA in the absence of chemical substance (yeast gene YMR162C): 1.1; The level of expressed mRNA in the presence of chemical substance/The level of expressed mRNA in the absence of chemical substance (yeast gene YMR203W): 0.7; The level of expressed mRNA in the presence of chemical substance/The level of expressed mRNA in the absence of chemical substance (yeast gene YNL055C): 1.7; The level of expressed mRNA in the presence of chemical substance/The level of expressed mRNA in the absence of chemical substance (yeast gene YNL259C): 2.4; The level of expressed mRNA in the presence of chemical substance/The level of expressed mRNA in the absence of chemical substance (yeast gene YNR072W): 1.0; The level of expressed mRNA in the presence of chemical substance/The level of expressed mRNA in the absence of chemical substance (yeast gene YOL119C): 1.0; The level of expressed mRNA in the presence of chemical substance/The level of expressed mRNA in the absence of chemical substance (yeast gene YOL156W): 0.9; The level of expressed mRNA in the presence of chemical substance/The level of expressed mRNA in the absence of chemical substance (yeast gene YOL163W): 0.8; The level of expressed mRNA in the presence of chemical substance/The level of expressed mRNA in the absence of chemical substance (yeast gene YOR035C): 2.1; The level of expressed mRNA in the presence of chemical substance/The level of expressed mRNA in the absence of chemical substance (yeast gene YOR130C): 1.1; The level of expressed mRNA in the presence of chemical substance/The level of expressed mRNA in the absence of chemical substance (yeast gene YOR153W): 3.1; The level of expressed mRNA in the presence of chemical substance/The level of expressed mRNA in the absence of chemical substance (yeast gene YOR273C): 3.1; The level of expressed mRNA in the presence of chemical substance/The level of expressed mRNA in the absence of chemical substance (yeast gene YOR316C): 1.0; The level of expressed mRNA in the presence of chemical substance/The level of expressed mRNA in the absence of chemical substance (yeast gene YOR332W): 1.7; The level of expressed mRNA in the presence of chemical substance/The level of expressed mRNA in the absence of chemical substance (yeast gene YOR348C): 0.9; The level of expressed mRNA in the presence of chemical substance/The level of expressed mRNA in the absence of chemical substance (yeast gene YPL036W): 0.5; The level of expressed mRNA in the presence of chemical substance/The level of expressed mRNA in the absence of chemical substance (yeast gene YPL134C): 1.3; The level of expressed mRNA in the presence of chemical substance/The level of expressed mRNA in the absence of chemical substance (yeast gene YPL147W): 3.6; The level of expressed mRNA in the presence of chemical substance/The level of expressed mRNA in the absence of chemical substance (yeast gene YPL271W): 1.3; The level of expressed mRNA in the presence of chemical substance/The level of expressed mRNA in the absence of chemical substance (yeast gene YPR192W): 0.9; The level of expressed mRNA in the presence of chemical substance/The level of expressed mRNA in the absence of chemical substance (yeast gene YPR194C): 0.9
